Molecular target: T1, human A2B adenosine receptor (Homo sapiens, UniProt P29275)
T1 construct: expressed in transfected cells; host or cells: COS7 cells
T1 sequence (P29275 1-332): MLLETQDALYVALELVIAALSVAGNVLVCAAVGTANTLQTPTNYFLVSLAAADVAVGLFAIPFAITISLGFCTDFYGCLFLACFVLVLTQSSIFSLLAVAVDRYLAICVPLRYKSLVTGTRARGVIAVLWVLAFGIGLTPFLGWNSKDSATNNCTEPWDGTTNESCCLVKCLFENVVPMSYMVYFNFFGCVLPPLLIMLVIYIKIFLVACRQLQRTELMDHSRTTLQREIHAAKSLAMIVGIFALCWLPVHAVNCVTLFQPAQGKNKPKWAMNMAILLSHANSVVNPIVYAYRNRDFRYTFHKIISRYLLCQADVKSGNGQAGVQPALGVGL
Experiment: competition binding, recombinant human A2B adenosine receptor
Conditions: A3 versus A2B
Method: Monolayer cell culture of transfected COS7 cells were dissociated with 1 mM EDTA in phosphate buffered saline and resuspended in 5 mM Tris, pH7.6/10 mM MgCl2. The cells were subjected to freeze-thaw lysis and the suspension was homogenized in a glass dounce homogenizer. The membranes were pelleted, resuspended in binding buffer, 50 mM Tris pH 7.6/10 mM MgCl2 and incubated with adenosine deaminase before the binding assay. The binding assay was performed by incubating 50-100 Fg of membranes with increasing concentrations of radiolabeled adenosine agonists. Bound ligand was separated from free ligand by filtration on a SKATRON CELL […] equipped with a receptor binding filtermat. Bound radioactivity was measured by scintillation counting. Substances which bind to or enhance binding to expressed human adenosine receptors in COS and CHO cells can be identified in competition binding assays with radiolabeled adenosine or xanthine analogs. […] Membranes were prepared from transiently transfected COS7 cells 48 h after transfection or from G418-selected stably transfected CHO or HEK 293 cells. […] Protein concentration was determined by tie method of Bradford ((1976) Anal. Biochem. 72: 248-250). […] Bound radioactivity was measured by scintillation counting. Non-specific binding was measured on membranes prepared from non-transfected COS7 cells.

CCCn1c(=O)c2[nH]c(-c3cccc(C=CC(=O)O)c3)nc2n(CCC)c1=O [BW-3911]
fold selectivity for A3 compared to human A2B: 70 fold
